From ChEMBL document CHEMBL1130369, “Design, syntheses and potentiating activities against methicillin resistant Staphylococcus aureus of cyclic analogs of LY301621” (1997)

Columns and labels:
Staphylococcus aureus [1] = test: Ability of 40 ug to enlarge the zone of inhibition produced by 100 microg of methicillin in disk assay using Staphylococcus aureus strain 447; synergy; format: functional, organism-based
Staphylococcus aureus [2] = test: Minimal synergizing concentration required to inhibit growth of Staphylococcus aureus strain 447 in the presence of 4 ug/mL of methicillin.; format: functional
Staphylococcus aureus [3] = test: Minimum concentration required to inhibit growth of methicillin sensitive Staphylococcus aureus strain 446; format: functional
Staphylococcus aureus [4] = test: Ability of 40 ug to enlarge the zone of inhibition produced by 100 microg of methicillin in disk assay using Staphylococcus aureus strain 447; No synergy; format: functional, organism-based
Staphylococcus aureus [5] = test: Minimum concentration required to inhibit growth of methicillin resistant Staphylococcus aureus strain 447; format: functional
Staphylococcus aureus [6] = test: Ability of 40 ug to enlarge the zone of inhibition produced by 100 microg of methicillin in disk assay using Staphylococcus aureus strain 447; Synergy; format: functional, organism-based
[7] = Staphylococcus aureus, read-out: MIC

Compound	MSC (Staphylococcus aureus [2])	MIC (Staphylococcus aureus [3]; [7])	further results
O=C(N[C@@H](C(=O)N1CCC[C@H]1C(=O)N[C@H](CO)Cc1ccccc1)C(c1ccccc1)c1ccccc1)OCc1ccccc1	12.5 µg/mL	> 100 µg/mL	Synergy with methicillin (Staphylococcus aureus [1]): synergy
O=C1N[C@@H](C(c2ccccc2)c2ccccc2)C(=O)N2CCCC2C(=O)NC(CO)(Cc2ccccc2)C(=O)Nc2ccccc21 (single isomer, unassigned; 1b) [listing 1 of 2 here]	100 µg/mL	> 100 µg/mL	
O=C1N[C@@H](C(c2ccccc2)c2ccccc2)C(=O)N2CCC[C@@H]2C(=O)NCc2ccccc2-c2ccccc21	>100 µg/mL	> 100 µg/mL	Synergy with methicillin (Staphylococcus aureus [4]): No synergy
O=C1N[C@@H](C(c2ccccc2)c2ccccc2)C(=O)N2CCCC2C(=O)N[C@](CO)(Cc2ccccc2)C(=O)Nc2ccccc21 (single isomer, unassigned)	>128 µg/mL		MIC (Staphylococcus aureus [5]): >128 µg/mL; Synergy with methicillin (Staphylococcus aureus [6]): Synergy
O=C1N[C@@H](C(c2ccccc2)c2ccccc2)C(=O)N2CCCC2C(=O)N[C@@](CO)(Cc2ccccc2)C(=O)Nc2ccccc21 (single isomer, unassigned)	>128 µg/mL		MIC (Staphylococcus aureus [3]): >128 µg/mL
O=C1N[C@@H](C(c2ccccc2)c2ccccc2)C(=O)N2CCCC2C(=O)NC(CO)(Cc2ccccc2)C(=O)Nc2ccccc21 (single isomer, unassigned; 1a) [listing 1 of 2 here]			Synergy with methicillin (Staphylococcus aureus [4]): No synergy
O=C1N[C@@H](C(c2ccccc2)c2ccccc2)C(=O)N2CCCC2C(=O)NC(CO)(Cc2ccccc2)C(=O)Nc2ccccc21 (single isomer, unassigned; 1a) [listing 2 of 2 here]	>100 µg/mL	> 128 µg/mL	MIC (Staphylococcus aureus [5]; [7]): > 100 µg/mL
O=C1N[C@@H](C(c2ccccc2)c2ccccc2)C(=O)N2CCCC2C(=O)NC(CO)(Cc2ccccc2)C(=O)Nc2ccccc21 (single isomer, unassigned; 1b) [listing 2 of 2 here]			Synergy with methicillin (Staphylococcus aureus [6]): Synergy
